Measurements reported in patent US20250381109A1, “KERATIN TREATMENT FORMULATIONS AND METHODS” (Olaplex, Inc., priority 2014, published 2025).

What was measured:
[1] = Hair treated with bleaching formulation applied simultaneously with active agent formulation versus bleaching formulation alone (Example 4); parameters: species or system human; details: 3.5 g of 12 wt % in water added to bleaching mixture, two hours
Description: (§1) (1) 0.5 ounces of powder lightener (Clairol Professional, Basic White) and 0.5 ounces of conditioning cream developer (Redken, Blonde Icing) were combined to form a bleaching mixture. 3.5 g of 2-(methacryloyloxy)ethan-1-aminium (Z)-3-carboxyacrylate (12 wt % in water) was added to the bleaching mixture and thoroughly mixed with a brush.
(§2) (2) The bleaching mixture prepared was brushed onto the swatches of hair with a brush in order to thoroughly coat the strands of hair. The mixture coated hair was wrapped in aluminum paper and allowed to stand under ambient conditions for a period of two hours.
(§3) (3) After the two hour bleaching period the swatches of hair were washed with shampoo and the hair was subsequently allowed to air dry.

[2] = Hair breakage due to repeated application of traditional perm and the active agent formulation (Example 7); details: after dithiothreitol or ammonium thioglycolate; procedure repeated three times over a 48 hour time period
[3] = Traditional perm versus perm using maleic acid (Example 6); details: perm after ammonium thioglycolate or dithiothreitol; after 40 cycles of washing and drying
[4] = Hair treated with bleaching formulation applied simultaneously with active agent formulation versus bleaching formulation alone (Example 5); parameters: species or system human; details: 3.5 g of 10 wt % in water added to bleaching mixture, two hours
Description: as §1, with “prop-2-en-1-aminium” for “2-(methacryloyloxy)ethan-1-aminium”, “(10” for “(12”
as §2, §3

Q: What does the source list for C=C(C)C(=O)OCCN.O=C(O)/C=C\C(=O)O [2-(methacryloyloxy)ethan-1-aminium (Z)-3-carboxyacrylate]?
A: appearance [1]: healthy appearance; breakage [1]: no discernible breakage; feel [1]: great feel

Q: Which “breakage upon visual inspection” value [2] does the source give for OO [hydrogen peroxide] here?
A: significant breakage

Q: What about the “reduction in the overall curl” value [3] of the same molecule?
A: only slight reduction in the overall curl

Q: Which appearance [4] does the source give for C=CCN.O=C(O)/C=C\C(=O)O [prop-2-en-1-aminium (Z)-3-carboxyacrylate] here?
A: healthy appearance

Q: What about the breakage [4] of the same molecule?
A: no discernible breakage

Q: What about the feel [4] of the same molecule?
A: great feel
